Reference: paper PMC11019550, “Potent Inhibition of E. coli DXP Synthase by a gem-Diaryl Bisubstrate Analog” (ACS Infectious Diseases, 2024)

Key:
EcDXPS = target: T1, EcDXPS (Escherichia coli, UniProt P77488); test: DXPS-IspC coupled assay, apparent Ki on wildtype EcDXPS; format: biochemical; conditions: EcDXPS 100 nM, 10 min preincubation; Morrison equation fit; read-out: Ki^app
T1 construct: made in house
Protocol: To determine inhibitor potency, we used the DXPS-DXP reductoisomerae (DXPS-IspC) coupled assay to measure the activity of recombinant purified EcDXPS[24],[25],[31],[44],[50] in the presence of inhibitors. Reactions were initiated by the addition of substrates following a short preincubation of the inhibitor with enzymes, and initial velocities were determined by monitoring reduced nicotinamide adenine dinucleotide phosphate (NADPH) absorbance at 340 nm. Apparent Ki values were determined by fitting initial velocity data to the Morrison equation,[64],[65] which accounts for the tight-binding nature (Ki^app/[E]total < 10)[66] of inhibitors included in this study and allows for rigorous comparison of inhibitor potencies. […] Inhibitor activities were rationalized based on the predictions made from molecular docking of the corresponding PLThDP adducts into the DXPS active site.
All compounds in this study were evaluated as DXPS inhibitors using the DXPS-IspC coupled assay as previously reported.[24] […] The DXPS reaction was initiated by the addition of substrates (50 μM pyruvate and 500 μM D-GAP). The initial rate of depletion of NADPH was monitored at 340 nm and was used to calculate the initial rate of DXP formation in the presence or absence of inhibitor. Initial rates of DXP formation were plotted as a function of [inhibitor], and Ki^app was determined by fitting the data to the Morrison equation (eq 1)[64],[65] in GraphPad Prism. This approach was deemed appropriate as the concentration of free inhibitor cannot be assumed to remain constant for most of these analogs in which Ki^app values approach the concentration of DXPS.[88],[89] Error is reported as standard deviation from three replicates. Active enzyme concentration ([E]T) was determined following Copeland’s method using 8 (Figure S2B).[88]
The coupled assay was initiated by adding 20 μL of a 10× substrate stock to the preincubated E + I mixture to give a final volume of 200 μL. The final concentration of D-GAP was held constant at 500 μM, and [pyruvate] was added to final concentrations between 0 and 250 μM. The initial rate of NADPH depletion in the IspC-coupled reaction was monitored at 340 nm and was used to calculate the initial rate of DXP formation in the presence or absence of inhibitor. Initial rates were plotted as a function of [pyruvate]. […] Model discrimination analysis employing the Akaike information criterion was performed as well as Lineweaver–Burk analysis to determine the mixed model as the best fit. In all cases, error bars represent the standard deviation from three replicates.

R478A EcDXPS = target: T2, R478A EcDXPS (Escherichia coli, UniProt P77488, R478A); test: IC50 determination for 8 on R478A EcDXPS variant; format: biochemical; conditions: 400 nM DXPS, 2 × Km pyruvate, 10 × Km D-GAP
T2 construct: made in house
Protocol: EcDXPS and IspC were preincubated with inhibitor for 10 min at 25 °C in assay reaction buffer (100 mM HEPES pH 8, 2 mM MgCl2, 5 mM NaCl, 1 mM ThDP, and 200 μM NADPH). Enzyme concentrations for variants were as follows: 200 nM DXPS (wildtype EcDXPS) and 4 μM IspC; 400 nM DXPS (R99A and R478A EcDXPS) and 6 μM IspC. The reaction was initiated by the addition of substrates at final concentrations of 2 × Km pyruvate and 10 × KmD-GAP. NADPH consumption was monitored at 340 nm for 10 min at 25 °C. The initial rate of NADPH consumption was used to determine the initial rate of DXP formation catalyzed by DXPS. Experiments were performed in triplicate and error bars represented standard error.

[1] = tested on: porcine pyruvate dehydrogenase (PDH) E1 subunit; test: Inhibition of porcine pyruvate dehydrogenase (PDH); format: biochemical
From the text: As noted, DXPS has a large active site and follows a mechanism requiring ternary complex formation, distinct from other ThDP-dependent pyruvate decarboxylases. We hypothesized that the sterically demanding scaffold of 8, predicted to engage both substrate binding sites, should display selectivity for DXPS. In a preliminary assessment, we tested 8 as an inhibitor of porcine pyruvate dehydrogenase (PDH) E1 subunit. […] For comparison, the selectivity ratio for 1 was estimated to be >15,000-fold for DXPS over porcine PDH.
Figure S5. Evaluation of inhibitory activity of 8 against mammalian porcine pyruvate dehydrogenase (PDH). Porcine PDH (0.01 U/mL) and inhibitor (8 or MAP positive control) were preincubated for 10 minutes at 25 °C in enzyme buffer (2 mM MgCl2, 5 mM L-cysteine, 1 mM ThDP, 300 μM TCEP, 100 mM HEPES pH 8, 2.5 mM NAD +, and 100 μM coenzyme A). The reaction was initiated by addition of pyruvate (60 μM). The change in absorbance at 340 nm over time was measured and used to calculate the initial rate of NADH formation. The % activity of PDH in the presence of 8 or MAP was plotted using GraphPad Prism version 9. There is 21% inhibition of PDH activity observed in the presence of compound 8 at a concentration of 1 mM.
Experiments were performed in triplicate. Error bars represent standard error.
Figure S6. Replicate progress curves for DXP formation in the presence or absence of inhibitors 8 or 10 with EcDXPS. A) Progress curves for formation of DXP in the presence of 8 display time-dependence of inhibition. B) Progress curves for formation of DXP in the presence of descarboxyl […]

R99A EcDXPS = target: T3, R99A EcDXPS (Escherichia coli, UniProt P77488, R99A); test: Circular dichroism titration (PLThDP formation, apparent KD) on R99A EcDXPS; format: binding
T3 construct: made in house
Protocol: CD titrations of 8 and 10 onto WT, R99A, and R478A EcDXPS variants were conducted at 25 °C under aerobic conditions in 1.5 mL solutions containing 30 μM EcDXPS in 50 mM HEPES pH 8, 100 mM NaCl, 1 mM MgCl2, and 0.2 mM ThDP. Scans were obtained from 280 to 400 nm with a 0.5 s averaging time and 1 nm step following a titration of inhibitor (8: 0.25–30 μM on WT, 0.5–30 μM on R99A and R478A; 10 2.5–30 μM on WT, R99A, and R478A), with a 5 min preincubation of inhibitor with DXPS prior to scanning. […] The CD signals at 294 nm determined from the difference spectra obtained by subtracting the signal of E-ThDP at 294 nm were plotted as a function of [inhibitor] and fit to (1) the quadratic equation described in eq 2 (8 on WT DXPS), where E is the concentration of DXPS taking into account stoichiometric binding and CDmax is the maximal CD signal, or (2) a one-site specific binding curve (all other experiments) using GraphPad Prism Version 9 to calculate an apparent KD. Experiments were conducted in triplicate and the standard error was calculated. [drawing 2] 2
At the conclusion of the titration described above, the CD signal at 313 nm (previously characterized for LThDP) was recorded. Pyruvate (1 mM) was then added to the mixture, and a CD scan of the resulting solution was conducted as described above, to detect shifts in the CD spectrum that may correlate to LThDP formation. Experiments were conducted in triplicate.

In the case of CC(=O)P(=O)(O)OCCc1cn(C(Cc2ccccc2)(Cc2ccccc2)C(=O)O)nn1 [Compound 8], the Ki (EcDXPS) is reported as 0.0029 ± 0.0005 µM, the IC50 (R478A EcDXPS) is reported as 1.01 ± 0.381 µM and the “estimated selectivity ratio for DXPS over porcine PDH” value ([1]; DXPS over porcine PDH) is reported as > 64,000 fold. For the same compound, the “inhibition of PDH” value ([1]; at a concentration of 1 mM, 60 μM pyruvate, 10 min preincubation) was 21%, the Kd (R99A EcDXPS) was 19 ± 3 µM and the “change in PLThDP CD signal upon addition of pyruvate” value (R99A EcDXPS; R99A-PLThDP complex) was “shift in the CD profile toward the characteristic LThDP signal”.
